Results taken from patent US7906547B2, “Azabicylic compounds, a process for their preparation and pharmaceutical compositions containing them” (Les Laboratoires Servier, priority 2008, dated 2011).
Where a name gives a salt, the structure may show the parent alone.

Tests used:
[1] = test system: NMRI mouse; assay: Marble-burying test in the NMRI mouse; format: in vivo; settings: 30 mg/kg IP 30 minutes before test, 30 minutes period
Procedure: The spontaneous marble-burying behaviour in the mouse is a very sensitive empirical test for antidepressant compounds (Sanchez and Meier, Psychopharmacology, 1997; 129: 197-205; Nicolas and Prinssen, Eur. J. Pharmacol., 2006, 547: 106-115). The mice are placed in individual cages in which there are 24 marbles and the number of marbles buried by each animal is determined for a period of 30 minutes. The animals are treated by the intraperitoneal route with the compounds of the present invention or their carriers 30 minutes before placing the animals in the cage containing marbles.

[2] = test system: NMRI mouse; assay: Tail suspension test in the NMRI mouse; format: in vivo; settings: 10 mg/kg IP 24 hours and 30 minutes before suspension, 6 minutes
Procedure: The tail suspension test in the mouse (Porsolt et al., Arch. Int. Pharmacodyn., 1987, 288, 11) enables detection of psychopharmacological properties of compounds. NMRI mice are suspended by the tail, with the aid of a piece of adhesive tape, from a hook for 6 minutes: the immobility time is measured automatically with the aid of movement sensors. The animals are treated, by the intraperitoneal route, with the compounds of the invention or their carriers 24 hours and 30 minutes before they are suspended.

[3] = target: T1, type H3 central histamine receptors (Mus musculus, UniProt P58406); assay: Cerebral levels of Nτ-methylhistamine in the NMRI mouse (ex vivo H3 antagonist activity); settings: one hour after treatment, vs carrier
T1 construct: the brains are removed, frozen in liquid nitrogen, weighed and homogenised; from tissue; host or cells: brain of living NMRI mice (oral dosing)
T1 sequence (P58406 whole entry): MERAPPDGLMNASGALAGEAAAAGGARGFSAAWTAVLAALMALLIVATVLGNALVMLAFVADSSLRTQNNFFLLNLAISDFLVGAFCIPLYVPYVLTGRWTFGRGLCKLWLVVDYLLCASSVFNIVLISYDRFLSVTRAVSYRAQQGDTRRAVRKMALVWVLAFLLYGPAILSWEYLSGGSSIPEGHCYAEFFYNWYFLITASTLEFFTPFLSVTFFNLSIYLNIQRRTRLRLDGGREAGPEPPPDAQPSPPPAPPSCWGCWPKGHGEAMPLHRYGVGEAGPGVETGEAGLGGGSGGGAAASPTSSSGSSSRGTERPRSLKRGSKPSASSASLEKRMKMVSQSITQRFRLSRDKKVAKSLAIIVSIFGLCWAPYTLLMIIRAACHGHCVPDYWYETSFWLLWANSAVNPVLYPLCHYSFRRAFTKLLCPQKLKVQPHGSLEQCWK
Procedure: The purpose of this study, which was carried out in accordance with the method of Taylor et al. (Biochem. Pharm., 1992, 44, 1261-1267), is to evaluate the ex vivo activity of the compounds of the present invention as antagonists of type H3 central histamine receptors. […] An increase in the cerebral concentrations of N^τ-methylhistamine indicates an increase in the turn-over of histamine by blockage of the type H3 central histamine receptors.
NMRI mice (18-20 g) are treated with compounds of the present invention or with their carrier (20 ml/kg) by the oral route. One hour after the pharmacological treatment, the animals are sacrificed; the brains are removed, frozen in liquid nitrogen, weighed and homogenised in 0.1N HClO4 at 4° C. The homogenised products are centrifuged (15 000 g, 17 min, 4° C.). The supernatants are recovered and divided into aliquots. The aliquots are frozen in liquid nitrogen and stored at −80° C. until they are analysed.
Determination of the cerebral levels of N^τ-methylhistamine is carried out by capillary electrophoresis. The tissue levels of N^τ-methylhistamine are expressed in μg/g of fresh brain. The comparison of the cerebral levels of N^τ-methylhistamine between animals treated with the carrier (controls) and animals treated with compounds of the present invention is carried out by single-factor variance analysis followed, if necessary, by a complementary analysis (Dunnett's test).

[4] = test system: Wistar rat; assay: Interaction with barbital in the Wistar rat; format: in vivo; settings: 30 mg/kg PO 30 minutes before barbital 170 mg/kg IP, sleep measured for 4 hours
Procedure: The objective of this test is to determine the anti-sedative, awakening and/or anti-hypnotic properties of the compounds of the present invention. The rats are placed in individual cages and are given an injection of barbital (170 mg/kg IP). The duration of sleep is then measured for 4 hours after the injection of barbital, determined on the basis of loss of the righting reflex. The compounds of the invention or their carriers are administered by the oral route 30 minutes before the administration of barbital.

[5] = test system: NMRI mouse; assay: Forced swimming test in the NMRI mouse; format: in vivo; settings: 30 mg/kg IP 30 minutes before test, final 4 minutes of 6
Procedure: The forced swimming test is very widely used for detecting the antidepressant properties of compounds (Porsolt et al., Arch. Int. Pharmacodyn., 1977, 229, 327-336). The animals are placed for 6 minutes in cylinders filled with water (14 cm) and the immobility time is measured for the final 4 minutes by a video-tracking system. The compounds of the present invention or their carriers are administered by the intraperitoneal route 30 minutes before the mice are placed in the cylinder.

[6] = test system: Wistar rat; assay: Electroencephalogram recordings in the awake Wistar rat; format: in vivo; settings: 3 mg/kg IP
Procedure: Electrodes are chronically implanted in adult male Wistar rats, being located at the surface of the frontal and parietal cortex. Cortical electroencephalogram (EEG) recordings are made in the rats placed in cages in a sound-proofed room. The compounds and carriers are administered in randomised manner by the intraperitoneal route at 10 o'clock on the same days with a minimum of 3 days between each administration, allowing each rat to be used as its own control. The absolute power of the slow delta activities (1-4 Hz), which predominate during slow sleep and disappear during wakefulness and paradoxical sleep, is averaged over successive periods of 30 minutes. Over 30 minutes, high and low values for the power of the slow delta activities are signs of […], respectively.

[7] = test system: Sprague-Dawley rat; assay: Object recognition in the Sprague-Dawley rat; format: in vivo; settings: 0.3 mg/kg PO, 60 minutes before each session, 24 hours between sessions
From the text: The object recognition test in the Sprague-Dawley rat (Behav. Brain Res., 1988, 31, 47-59) is based on the spontaneous exploratory activity of the animal and has the characteristics of episodic memory in humans. This memory test is sensitive to ageing (Eur. J. Pharmacol., 1997, 325, 173-180) and to cholinergic dysfunctions (Pharm. Biochem. Behav. 1996, 53(2), 277-283) and is based on the differences in the exploration of 2 objects of fairly similar shape—one familiar, the other new. Prior to the test, the animals are habituated to the environment (an enclosure without an object). In the course of a first session, the rats are placed (3 minutes) in the enclosure, in which there are 2 identical objects. The duration of exploration is measured for each object. In the course of the second session (3 minutes), 24 hours later, 1 of the 2 objects is replaced by a new object. The duration of exploration is measured for each object. The assessment criterion is the difference, Delta, expressed in seconds, between the exploration times for the new object and for the familiar object in the course of the second session.

[8] = test system: Wistar rat; assay: Social recognition in the Wistar rat; format: in vivo; settings: second encounter after 2 hours
From the text: Initially described in 1982 (J. Comp. Physiol., 1982, 96, 1000-1006), the social recognition test has subsequently been proposed by various authors (Psychopharmacology, 1987, 91, 363-368; Psychopharmacology, 1989, 97, 262-268) for studying the mnemocognitive effects of new compounds. The test is based on the natural expression of the olfactory memory of the rat and its natural tendency to forget and allows evaluation of memorisation, by recognition of a young congeneric animal, by an adult rat. A young rat (21 days), taken at random, is placed for 5 minutes in the cage housing an adult rat. With the aid of a video device, the experimenter observes the social recognition behaviour of the adult rat and measures its overall duration. The young rat is then removed from the adult rat's cage and is placed in its own cage until the second introduction. The adult rat is given the compound under test by the intraperitoneal route and, after 2 hours, is again brought into the presence (5 minutes) of the young rat. The social recognition behaviour is then observed again and its duration measured. The assessment criterion is the difference (T2−T1), expressed in seconds, between the “recognition” times of the 2 encounters.

Row | SMILES | decrease in the number of balls buried [1] [%] | reduction in the immobility time [2] [%] | increase in endogenous cerebral concentrations of Nτ-methylhistamine ([3]; 10 mg/kg PO) [%] | increase in endogenous cerebral concentrations of Nτ-methylhistamine ([3]; 30 mg/kg PO) [%] | reduction of the duration of sleeping caused by barbital [4] [%] | reduction in immobility [5] [%] | other results
1 | NC(=O)c1ccc(OCCN2C[C@H]3C[C@H]3C2)cc1 [Example 2, 4-{2-[(1R,5S)-3-Azabicyclo[3.1.0]hex-3-yl]ethoxy}benzamide] | 99 | – | – | – | – | – | –
2 | CC(=O)Nc1ccc(OCCCN2C[C@H]3C[C@H]3C2)cc1 [Example 4, N-(4-{3-[(1R,5S)-3-Azabicyclo[3.1.0]hex-3-yl]propoxy}phenyl)acetamide] | – | 36 | – | – | – | – | –
3 | CC(=O)Nc1ccc(OCCN2C[C@H]3C[C@H]3C2)cc1 [Example 5, N-(4-{2-[(1R,5S)-3-Azabicyclo[3.1.0]hex-3-yl]ethoxy}phenyl)acetamide] | 49 | 64 | 109 | 200 | −80 | 32 | –
4 | CC(=O)Nc1ccc(OCCCCN2C[C@H]3C[C@H]3C2)cc1 [Example 6, N-(4-{4-[(1R,5S)-3-Azabicyclo[3.1.0]hex-3-yl]butoxy}phenyl)acetamide] | – | – | 106 | 210 | – | – | –
5 | CC(=O)N(C)c1ccc(OCCCN2C[C@H]3C[C@H]3C2)cc1.Cl [Example 13, N-(4-{3-[(1R,5S)-3-Azabicyclo[3.1.0]hex-3-yl]propoxy}phenyl)-N-methylacetamide hydrochloride] | – | 53 | 135 | 303 | – | – | duration of the reduction in the power of the slow delta waves [6]: 120 min; effect on power of the slow delta waves (1-4 Hz), cortical EEG [6]: significant reduction
6 | NC(=O)c1ccc(OCCCN2C[C@H]3C[C@H]3C2)cc1 [Example 1, 4-{3-[(1R,5S)-3-Azabicyclo[3.1.0]hex-3-yl]propoxy}-benzamide hydrochloride] | 48 | 59 | – | – | – | 76 | duration of the reduction in the power of the slow delta waves [6]: 120 min; difference, Delta, between exploration times for the new object and the familiar object (second session) [7]: ~6 s; difference (T2−T1) between the recognition times of the 2 encounters ([8]; 1 mg/kg IP): 21 s; difference (T2−T1) between the recognition times of the 2 encounters ([8]; 3 mg/kg IP): 26 s
7 | COCC(=O)Nc1ccc(OCCCN2C[C@H]3C[C@H]3C2)cc1 [Example 14, N-(4-{3-[(1R,5S)-3-Azabicyclo[3.1.0]hex-3-yl]propoxy}phenyl)-2-methoxyacetamide] | – | 36 | 124 | 266 | – | – | –
8 | CN(C)C(=O)c1ccc(OCCCCN2C[C@H]3C[C@H]3C2)cc1.O=C(O)C(=O)O [Example 8, 4-{4-[(1R,5S)-3-Azabicyclo[3.1.0]hex-3-yl]butoxy}-N,N-dimethyl-benzamide oxalate] | – | – | – | – | −79 | – | –
9 | COCC(=O)Nc1ccc(OCCN2C[C@H]3C[C@H]3C2)cc1 [Example 15, N-(4-{2-[(1R,5S)-3-Azabicyclo[3.1.0]hex-3-yl]ethoxy}phenyl)-2-methoxyacetamide] | 83 | 77 | – | – | −76 | 34 | –
10 | CNC(=O)c1ccc(OCCCCN2C[C@H]3C[C@H]3C2)cc1 [Example 12, 4-{4-[(1R,5S)-3-Azabicyclo[3.1.0]hex-3-yl]butoxy}-N-methylbenzamide] | – | – | – | – | −55 | – | –
